Laboratory results as given in patent US8802597B2, “Herbicidal pyrimidines” (E I du Pont de Nemours and Company, priority 2003, dated 2014).
Like-named read-outs stand apart in the source and are kept apart here.

What was measured:
Type in all cases: in vivo
[1] = test system: johnsongrass (Sorghum halepense); assay: Test C pre/postemergence; conditions: for pest or weed control at 31 g/ha / pest or weed control at 62 g/ha / pest or weed control at 125 g/ha / pest or weed control at 250 g/ha: Sorghum halepense; for pest or weed control at 31 g/ha: 31 g ai/ha
Description: (§1) Seeds or nutlets of plant species selected from bermudagrass (Cynodon dactylon), Surinam grass (Brachiaria decumbens), cocklebur (Xanthium strumarium), corn (Zea mays), crabgrass (Digitaria sanguinalis), woolly cupgrass (Eriochloa villosa), giant foxtail (Setaria faberii), goosegrass (Eleusine indica), johnsongrass (Sorghum halepense), kochia (Kochia scoparia), lambsquarters (Chenopodium album), morningglory (Ipomoea coccinea), eastern black nightshade (Solanum ptycanthum), yellow nutsedge (Cyperus esculentus), pigweed (Amaranthus retroflexus), common ragweed (Ambrosia elatior), soybean (Glycine max), common (oilseed) sunflower (Helianthus annuus), and velvetleaf (Abutilon theophrasti) were planted and treated preemergence with test chemicals formulated in a non-phytotoxic solvent mixture which included a surfactant.
(§2) At the same time, plants selected from these crop and weed species and also winter barley (Hordeum vulgare), blackgrass (Alopecurus myosuroides), canarygrass (Phalaris minor), chickweed (Stellaria media), downy brome (Bromus tectorum), green foxtail (Setaria viridis), Italian ryegrass (Lolium multiflorum), wheat (Triticum aestivum), wild oat (Avena fatua) and windgrass (Apera spica-venti) were treated with postemergence applications of some of the test chemicals formulated in the same manner. Plants ranged in height from 2 to 18 cm (1- to 4-leaf stage) for postemergence treatments. Plant species in the flooded paddy test consisted of rice (Oryza sativa), umbrella sedge (Cyperus difformis), duck salad (Heteranthera limosa) and barnyardgrass (Echinochloa crus-galli) grown to the 2-leaf stage for testing. Treated plants and controls were maintained in a greenhouse for 12 to 14 days, after which time all species were compared to controls and visually evaluated. Plant response ratings, summarized in Table C, are based on a scale of 0 to 100 where 0 is no effect and 100 is complete control. A dash (-) response means no test result.

soybean (Glycine max) = assay: Test C pre/postemergence; conditions: for plant injury at 31 g/ha / plant injury at 62 g/ha / plant injury at 125 g/ha / plant injury at 250 g/ha: Glycine max; for plant injury at 31 g/ha: 31 g ai/ha
Description: as §1, §2

[2] = test system: lambsquarters (Chenopodium album); assay: Test C pre/postemergence; conditions: for pest or weed control at 31 g/ha / pest or weed control at 62 g/ha / pest or weed control at 125 g/ha / pest or weed control at 250 g/ha: Chenopodium album; for pest or weed control at 31 g/ha: 31 g ai/ha
Description: as §1, §2

[3] = test system: bermudagrass (Cynodon dactylon); assay: Test C pre/postemergence; conditions: for pest or weed control at 31 g/ha / pest or weed control at 62 g/ha / pest or weed control at 125 g/ha / pest or weed control at 250 g/ha: Cynodon dactylon; for pest or weed control at 31 g/ha: 31 g ai/ha
Description: as §1, §2

[4] = test system: chickweed (Stellaria media); assay: Test C postemergence; conditions: for Plant response rating, Chickweed: scale 0 to 100
Procedure, shortened: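 Seeds sown and sprayed preemergence with test compound in non-phytotoxic solvent containing surfactant; postemergence sprays, same formulation, went onto plants 2 to 18 cm tall (1- to 4-leaf stage). Plants held in greenhouse 12 to 14 days, then visually rated against untreated controls on a 0–100 scale (0 no effect, 100 complete control).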

[5] = Postemergence, 62 g ai/ha, scale 0 to 100 (0 no effect, 100 complete control)
[6] = Postemergence, 125 g ai/ha, scale 0 to 100 (0 no effect, 100 complete control)
[7] = Postemergence, 250 g ai/ha, scale 0 to 100
[8] = Postemergence, 500 g ai/ha, scale 0 to 100
[9] = Preemergence, 250 g ai/ha, scale 0 to 100
[10] = Preemergence, 62 g ai/ha, scale 0 to 100, 0 no effect, 100 complete control
[11] = Preemergence, 125 g ai/ha, scale 0 to 100
[12] = Preemergence, 500 g ai/ha, scale 0 to 100

COC(=O)c1nc(C2CC2C)nc(N)c1Br (stereo not drawn) [Compound 28]
Johnsongrass plant response rating [1, 5]: 0 | Johnsongrass plant response rating [1, 6]: 0 | Plant response rating, Johnsongrass [1, 7]: 0 | Plant response rating, Johnsongrass [1, 8]: 0 | Plant response rating, Johnsongrass [1, 9]: 0 | Soybean plant response rating (soybean (Glycine max); [5]): 75 | Soybean plant response rating (soybean (Glycine max); [6]): 85 | Plant response rating, Soybean (soybean (Glycine max); [7]): 95 | Plant response rating, Soybean (soybean (Glycine max); [8]): 95 | Plant response rating, Soybean (soybean (Glycine max); [10]): 0 | Plant response rating, Soybean (soybean (Glycine max); [11]): 45 | Plant response rating, Soybean (soybean (Glycine max); [9]): 65 | Plant response rating, Soybean (soybean (Glycine max); [12]): 90 | Lambsquarters plant response rating [2, 5]: 60 | Lambsquarters plant response rating [2, 6]: 75 | Plant response rating, Lambsquarters [2, 7]: 85 | Plant response rating, Lambsquarters [2, 8]: 95 | Plant response rating, Lambsquarters [2, 10]: 95 | Plant response rating, Lambsquarters [2, 11]: 100 | Plant response rating, Lambsquarters [2, 9]: 100 | Plant response rating, Lambsquarters [2, 12]: 100 | Bermudagrass plant response rating [3, 5]: 0 | Bermudagrass plant response rating [3, 6]: 0 | Plant response rating, Bermudagrass [3, 7]: 0 | Plant response rating, Bermudagrass [3, 8]: 0 | Plant response rating, Bermudagrass [3, 10]: 0 | Plant response rating, Bermudagrass [3, 11]: 20 | Plant response rating, Bermudagrass [3, 9]: 30 | Plant response rating, Bermudagrass [3, 12]: 35 | Chickweed plant response rating ([4]; 62 g ai/ha, scale 0 to 100 (0 no effect, 100 complete control)): 0 | Chickweed plant response rating ([4]; 125 g ai/ha, scale 0 to 100 (0 no effect, 100 complete control)): 0 | Plant response rating, Chickweed ([4]; 250 g ai/ha): 15 | Plant response rating, Chickweed ([4]; 500 g ai/ha): 20

CCOC(=O)c1nc(C2CC2)nc(N)c1F [Compound 30]
pest or weed control at 31 g/ha ([1]; post-emergence, Postemergence, read-out: Plant response rating (scale of 0 to 100), Johnsongrass): 0% | pest or weed control at 62 g/ha ([1]; post-emergence, Postemergence, 62 g ai/ha, scale 0 to 100 (0 no effect, 100 complete control), read-out: Johnsongrass plant response rating): 5% | pest or weed control at 125 g/ha ([1]; post-emergence, Postemergence, 125 g ai/ha, scale 0 to 100 (0 no effect, 100 complete control), read-out: Johnsongrass plant response rating): 10% | pest or weed control at 250 g/ha ([1]; post-emergence, Postemergence, 250 g ai/ha, scale 0 to 100, read-out: Plant response rating, Johnsongrass): 40% | pest or weed control at 31 g/ha ([1]; pre-emergence, Preemergence, scale 0 to 100, 0 no effect, 100 complete control, read-out: Plant response rating, Johnsongrass): 0% | pest or weed control at 62 g/ha ([1]; pre-emergence, Preemergence, 62 g ai/ha, scale 0 to 100, 0 no effect, 100 complete control, read-out: Plant response rating, Johnsongrass): 0% | pest or weed control at 125 g/ha ([1]; pre-emergence, Preemergence, 125 g ai/ha, scale 0 to 100, read-out: Plant response rating, Johnsongrass): 5% | pest or weed control at 250 g/ha ([1]; pre-emergence, Preemergence, 250 g ai/ha, scale 0 to 100, read-out: Plant response rating, Johnsongrass): 5% | plant injury at 31 g/ha (soybean (Glycine max); post-emergence, Postemergence, read-out: Plant response rating (scale of 0 to 100), Soybean): 80% | plant injury at 62 g/ha (soybean (Glycine max); post-emergence, Postemergence, 62 g ai/ha, scale 0 to 100 (0 no effect, 100 complete control), read-out: Soybean plant response rating): 90% | plant injury at 125 g/ha (soybean (Glycine max); post-emergence, Postemergence, 125 g ai/ha, scale 0 to 100 (0 no effect, 100 complete control), read-out: Soybean plant response rating): 90% | plant injury at 250 g/ha (soybean (Glycine max); post-emergence, Postemergence, 250 g ai/ha, scale 0 to 100, read-out: Plant response rating, Soybean): 95% | plant injury at 31 g/ha (soybean (Glycine max); pre-emergence, Preemergence, scale 0 to 100, 0 no effect, 100 complete control, read-out: Plant response rating, Soybean): 0% | plant injury at 62 g/ha (soybean (Glycine max); pre-emergence, Preemergence, 62 g ai/ha, scale 0 to 100, 0 no effect, 100 complete control, read-out: Plant response rating, Soybean): 5% | plant injury at 125 g/ha (soybean (Glycine max); pre-emergence, Preemergence, 125 g ai/ha, scale 0 to 100, read-out: Plant response rating, Soybean): 5% | plant injury at 250 g/ha (soybean (Glycine max); pre-emergence, Preemergence, 250 g ai/ha, scale 0 to 100, read-out: Plant response rating, Soybean): 70% | pest or weed control at 31 g/ha ([2]; post-emergence, Postemergence, read-out: Plant response rating (scale of 0 to 100), Lambsquarters): 50% | pest or weed control at 62 g/ha ([2]; post-emergence, Postemergence, 62 g ai/ha, scale 0 to 100 (0 no effect, 100 complete control), read-out: Lambsquarters plant response rating): 60% | pest or weed control at 125 g/ha ([2]; post-emergence, Postemergence, 125 g ai/ha, scale 0 to 100 (0 no effect, 100 complete control), read-out: Lambsquarters plant response rating): 80% | pest or weed control at 250 g/ha ([2]; post-emergence, Postemergence, 250 g ai/ha, scale 0 to 100, read-out: Plant response rating, Lambsquarters): 90% | pest or weed control at 31 g/ha ([2]; pre-emergence, Preemergence, scale 0 to 100, 0 no effect, 100 complete control, read-out: Plant response rating, Lambsquarters): 0% | pest or weed control at 62 g/ha ([2]; pre-emergence, Preemergence, 62 g ai/ha, scale 0 to 100, 0 no effect, 100 complete control, read-out: Plant response rating, Lambsquarters): 80% | pest or weed control at 125 g/ha ([2]; pre-emergence, Preemergence, 125 g ai/ha, scale 0 to 100, read-out: Plant response rating, Lambsquarters): 85% | pest or weed control at 250 g/ha ([2]; pre-emergence, Preemergence, 250 g ai/ha, scale 0 to 100, read-out: Plant response rating, Lambsquarters): 90% | pest or weed control at 31 g/ha ([3]; post-emergence, Postemergence, read-out: Plant response rating (scale of 0 to 100), Bermudagrass): 0% | pest or weed control at 62 g/ha ([3]; post-emergence, Postemergence, 62 g ai/ha, scale 0 to 100 (0 no effect, 100 complete control), read-out: Bermudagrass plant response rating): 0% | pest or weed control at 125 g/ha ([3]; post-emergence, Postemergence, 125 g ai/ha, scale 0 to 100 (0 no effect, 100 complete control), read-out: Bermudagrass plant response rating): 5% | pest or weed control at 250 g/ha ([3]; post-emergence, Postemergence, 250 g ai/ha, scale 0 to 100, read-out: Plant response rating, Bermudagrass): 5% | pest or weed control at 31 g/ha ([3]; pre-emergence, Preemergence, scale 0 to 100, 0 no effect, 100 complete control, read-out: Plant response rating, Bermudagrass): 0% | pest or weed control at 62 g/ha ([3]; pre-emergence, Preemergence, 62 g ai/ha, scale 0 to 100, 0 no effect, 100 complete control, read-out: Plant response rating, Bermudagrass): 0% | pest or weed control at 125 g/ha ([3]; pre-emergence, Preemergence, 125 g ai/ha, scale 0 to 100, read-out: Plant response rating, Bermudagrass): 0% | pest or weed control at 250 g/ha ([3]; pre-emergence, Preemergence, 250 g ai/ha, scale 0 to 100, read-out: Plant response rating, Bermudagrass): 0% | pest or weed control at 31 g/ha ([4]; Stellaria media, post-emergence, 31 g ai/ha, read-out: Plant response rating (scale of 0 to 100), Chickweed): 40% | pest or weed control at 62 g/ha ([4]; Stellaria media, post-emergence, 62 g ai/ha, scale 0 to 100 (0 no effect, 100 complete control), read-out: Chickweed plant response rating): 50% | pest or weed control at 125 g/ha ([4]; Stellaria media, post-emergence, 125 g ai/ha, scale 0 to 100 (0 no effect, 100 complete control), read-out: Chickweed plant response rating): 65% | pest or weed control at 250 g/ha ([4]; Stellaria media, post-emergence, 250 g ai/ha, scale 0 to 100, read-out: Plant response rating, Chickweed): 85%
